# Assay results: patent US20190321365A1, “Maintenance Therapy for the Treatment of Cancer” (Aslan Pharmaceuticals Pte. Ltd., priority 2016, published 2019)
# Read-outs that look alike come from different tables or passages of the source.
# What was measured:
# [1] = test system: breast cancer; conditions: cited from earlier work
# [2] = test system: gastric tumors co-expressing EGFR and HER2 or HER2 amplified; test: Phase I monotherapy trial in gastric cancer patients, tumor biopsies by immunohistochemistry; format: in vivo, human; conditions: 23 patients, 500 mg orally twice daily, monotherapy for 28 days; biopsies before and after treatment
# Description: It has been tested as a monotherapy in phase I clinical trials of gastric cancer patients. 23 patients, who had previously failed on one or more rounds of chemotherapy and, where eligible, trastuzumab, each received 500 mg of ASLAN001 orally twice daily as monotherapy for 28 days. Tumor biopsies taken before and after treatment were analysed using immunohistochemistry.
# [3] = General tolerability in patients; format: in vivo, human; conditions: in comparison to many anti-cancer treatments
# [4] = test system: squamous cell carcinoma of the cervix; test: Example 1: maintenance therapy, patient with squamous cell carcinoma of the cervix; format: in vivo, human; conditions: 300 mg bi-daily; one patient, progressing after radiation and chemotherapy
# Description: A patient diagnosed with squamous cell carcinoma of the cervix was initially treated with radiation therapy and concurrent weekly cisplatin. They had recurring disease the following year. They subsequently received a number of lines of chemotherapy, including topotecan/cisplating and ifosfamide. The cancer continued to progress.
# They received 300 mg bi-daily of varlitinib for 6.5 years.
# The patient received varlitinib maintenance therapy for about 6.5 years before developing transitional cell carcinoma of the bladder. It is likely that this bladder carcinoma was a result receiving pelvic radiation and/or treatment with ifsoamide.
# [5] = test system: choloangiocarcinoma (CCA); test: Example 2: maintenance monotherapy, patient with cholangiocarcinoma; format: in vivo, human
# Description: A person with choloangiocarcinoma (CCA), namely […] adenocarcinoma had already received surgery, was administered varlitinib at a dose of 400 mg bi-daily in combination with doublet chemotherapy for six 28-day cycles. Varlitinib was then used as maintenance therapy as monotherapy for 10 additional cycles, of 28 days of treatment.
# [6] = test system: intrahepatic cholangiocarcinoma; test: Example 3: trial ASLAN001-002SG, maintenance monotherapy, patient with intrahepatic cholangiocarcinoma; format: in vivo, human
# Excerpt: A person ([…]/0013) had the past history of meningioma post left craniotomy for tumor excision in 2007. They were diagnosed with intrahepatic cholangiocarcinoma in July 2013, and received left hemihepatectomy followed by adjuvant chemotherapy (gemcitabine plus cisplatin) from 14 Aug. 2013 to 8 Jan. 2014. Disease relapse was found in […]. Thus, they received systemic treatment with gemcitabine plus cisplatin from 13th May to 1 Jul. 2015. They joined the clinical trial, […]. The study treatment of bi-weekly FOLFOX plus continuous 400 mg varlitinib per oral twice a day started on 4 Aug. 2015. […] 2015, varlitinib was interrupted and reduced to 300 mg twice a day in combination with FOLFOX. After 9 cycles (14 days/cycle) of combined regimen, they continue varlitinib monotherapy.
# [7] = test system: stage IV cholangiocarcinoma; test: Example 4: trial ASLAN001-002, maintenance monotherapy, patient with stage IV cholangiocarcinoma; format: in vivo, human
# Description: A person (ASLAN001-002 2A101) had the past history of type 2 diabetes mellitus and hypertension for more than 10 years. They were diagnosed with stage IV cholangiocarcinoma in November 2014.
# They joined the clinical trial, ASLAN001-002. The study treatment of cisplatin/5-FU plus continuous 400 mg varlitinib per oral twice a day started on 27 Jan. 2015.
# After 6 cycles (28 days/cycle) of combined regimen, […] continued 400 mg varlitinib monotherapy for another 99 days. […] The total treatment duration of varlitinib maintenance therapy was 287 days.
# The study treatment was discontinued due to disease progression.
# [8] = test system: stage IV gastric cancer; test: Example 5: trial ASLAN001-002, maintenance monotherapy, patient with stage IV gastric cancer; format: in vivo, human
# Description: A person (ASLAN001-002 2A102) had the past history of hypertension for more than 5 years. They were diagnosed with stage IV gastric cancer in April 2015.
# They joined the clinical trial, ASLAN001-002. The study treatment of cisplatin/5-FUplus continuous 400 mg varlitinib per oral twice a day started on 12 May 2015. After 6 cycles (28 days/cycle) of combined regimen, they continued 400 mg varlitinib monotherapy for another 112 days. […] The total treatment duration of varlitinib maintenance therapy was 243 days. […] The study treatment was discontinued due to disease progression.
# [9] = test system: stage IV bladder cancer; test: Example 6: trial ASLAN001-002SG, maintenance monotherapy, patient with stage IV bladder cancer; format: in vivo, human
# Excerpt: A person (ASLAN001-002SG DNT/0012) had the past history of type 2 diabetes mellitus, atrial fibrillation, hypertension, hyperlipidemia, and grade 1 hearing loss. They were diagnosed with stage IV bladder cancer and received radical cystoprostatectomy on 13 Dec. 2013. They also received cisplatin based concurrent radiotherapy on 20 Feb. 2014, and gemcitabine plus cisplatin from 10 Apr. to 8 May 2015.
# They joined the clinical trial, ASLAN001-002SG. The study treatment of bi-weekly FOLFOX plus continuous 300 mg varlitinib per oral twice a day started on 24 Aug. 2015. After 9 cycles (14 days/cycle) of combined regimen, they continued varlitinib monotherapy. The total treatment duration of varlitinib maintenance therapy was 140 days. […] The study treatment was discontinued due to disease progression.
# [10] = test system: stage IV gastric cancer; test: Example 7: trial ASLAN001-002, maintenance monotherapy, patient with stage IV gastric cancer; format: in vivo, human
# Description: A person (ASLAN001-002 2B302) had the underlying disease of gastro-esophageal reflux disease. They were diagnosed with stage IV gastric cancer in Jul. 2016.
# They joined the clinical trial, ASLAN001-002. The study treatment of cisplatin/capecitabine plus continuous 300 mg varlitinib per oral twice a day started on 6 Sep. 2016. After 6 cycles (21 days/cycle) of combined regimen, they continue varlitinib monotherapy. The total treatment duration of varlitinib maintenance therapy was 134 days. […] The study treatment was discontinued due to disease progression.
# [11] = women who didn't take hormone replacement therapy
compound,measurement,setting,value
CC/C(=C(\c1ccccc1)c1ccc(OCCN(C)C)cc1)c1ccccc1 [tamoxifen],reduction of the risk of breast cancer,"[1]; women at high risk, long-term study",29%
same,effect on the risk of estrogen-receptor-negative breast cancer,[1]; women at high risk,didn't reduce the risk
same,reduction of the risk of estrogen-receptor-positive breast cancer,[1]; women at high risk,35%
same,reduction of the risk of breast cancer,[1]; [11],38%
same,reduction of the risk of estrogen-receptor-positive disease,[1]; [11],45%
"C[C@@H]1COC(Nc2ccc3ncnc(Nc4ccc(OCc5nccs5)c(Cl)c4)c3c2)=N1 [varlitinib, (R)-N4-[3-Chloro-4-(thiazol-2-ylmethoxy)-phenyl]-N6-(4-methyl-4,5,-dihydro-oxazol-2-yl)-quinazoline-4,6-diamine]",signs of clinical activity in tumor biopsies,[2],"downregulation of signalling pathways responsible for cell proliferation, and a reduction in cell survival and cell proliferation"
same,tolerability,[3],very well tolerated
same,duration of maintenance therapy before developing transitional cell carcinoma of the bladder,[4],about 6.5 years
same,adverse event leading to dose reduction,"[5]; monotherapy 400 mg bi-daily, at cycle 10 day 15",increase in G3 creatinine levels
same,target lesion during maintenance therapy,[5]; period of 10 cycles of maintenance therapy,no target lesion was observed
same,disease status during maintenance therapy,"[5]; person, stage VI adenocarcinoma, monotherapy 400 then 300 mg bi-daily, 10 cycles of 28 days, after six cycles with doublet chemotherapy",stable disease
same,adverse event leading to interruption and dose reduction,[6]; 400 mg per oral twice a day in combination with bi-weekly FOLFOX,grade 3 hyperbilirubinemia
same,tumor status,[6]; after 504 days of maintenance treatment,partial response
same,duration of maintenance treatment to date,"[6]; person, monotherapy after 9 cycles with FOLFOX, 300 mg twice a day, ongoing",504 days
same,adverse event leading to dose tapering,[7]; after 99 days of 400 mg monotherapy,creatinine increase
same,best tumor response,[7]; non-target disease,non-complete response/non-progressive disease
same,total treatment duration of maintenance therapy,"[7]; person, 400 mg monotherapy, then 300 mg twice a day 1 week on and 1 week off, discontinued due to disease progression",287 days
same,adverse event leading to dose tapering,[8]; after 112 days of 400 mg monotherapy,creatinine increase
same,best tumor response,"[8]; human, in vivo",partial response
same,total treatment duration of maintenance therapy,"[8]; person, 400 mg monotherapy, then 300 mg twice a day, discontinued due to disease progression",243 days
same,best tumor response,"[9]; human, in vivo",stable disease
same,total treatment duration of maintenance therapy,"[9]; person, monotherapy after 9 cycles of FOLFOX plus 300 mg twice a day, discontinued due to disease progression",140 days
same,best tumor response,"[10]; human, in vivo",stable disease
same,total treatment duration of maintenance therapy,"[10]; person, monotherapy after 6 cycles of cisplatin/capecitabine plus 300 mg twice a day, discontinued due to disease progression",134 days
